Assay results reported in patent publication US12194014B2, “Platinum-based amphiphile prodrugs” (NANOMED HOLDINGS PTY LTD, priority 2018, dated 2025).
“Also recorded” adds a separate entry of the source.

Columns and labels:
[1] = tested on: CFPAC-1 (human pancreatic cancer) cell line-derived xenograft; experiment: In vivo tumour inhibition by dual prodrug nanoparticles, CFPAC-1 xenograft; design: species or system NOD-SCID gamma mouse (NSG); conditions: twice a week for 4 weeks; NPs IV with 4.5 mg/Kg Gem (dual: + 1 mg/Kg CP) equivalent; Gemcitabine 100 mg/Kg IP
Protocol: In another study a dual drug chemotherapeutic prodrug nanoparticle was employed to treat a CFPAC-1 (human pancreatic cancer) cell line-derived xenograft in NOD-SCID gamma mouse (NSG) over 28 days. […] The control groups were injected with the commercially available free Gemcitabine at 100 mg/Kg and PBS (vehicle control). Gemcitabine group were administered by intraperitoneal (IP) injection due to high toxicity of IV injection. 24 mice were used in this study, treating 6 mice/group.

[2] = tested on: CFPAC-1 pancreatic cell line; experiment: Cell proliferation and cytotoxicity assay (MTS or crystal violet); format: cell-based, human; conditions: CFPAC-1, 72 hours; prodrug tested as nanoparticles
Protocol: (§1) Cell proliferation and cytotoxicity assays were performed in different cell lines by MTS (3-(4,5-dimethylthiazol-2-yl)-5-(3-carboxymethoxyphenyl)-2-(4-sulfophenyl)-2H-tetrazolium) assay. Cells were treated with free drug or prodrug nanoparticles, and in different concentrations in medium supplemented with 10% FBS and incubated for 72 hours.
The cytotoxicity of CP-prodrug nanoparticles made from sole CP-amphiphiles was evaluated in comparison to native CP in a CFPAC-1 pancreatic cell line.
(§2) The cell lines were exposed to media with varying concentrations of the treatments (100-0.2 μM) and incubated for 72 hours. Cell viability was determined using the MTS assay or crystal violate assay and was conducted in triplicate to derive the IC50 values.

[3] = tested on: MCF7 cell line; experiment: as above; format: cell-based; conditions: MCF7, 72 hours; prodrug tested as nanoparticles
Protocol: as §1, §2

[4] = tested on: MIAPACA-2 (human pancreatic cancer) cell-derived xenograft; experiment: In vivo tumour inhibition, resistant MIAPACA-2 xenograft (tumour volume, body weight, kidney histopathology); design: species or system NOD-SCID mice; conditions: for histopathology of the kidney: 0.75 mg/Kg CP or equivalent, H & E sections
Description: Subcutaneous xenografts were established by implanting 2-3×10^6 cells from cultures of CFPAC-1 or MIAPACA-2 human pancreatic cancer cell lines. Six-week-old male Nonbobese diabetic/severe combined immunodeficient (NOD/SCID) or nonobese diabetic/severe combined immunodeficient-gamma (NSG) mice were obtained from Animal Research Centre, Perth, Australia. These mice were acclimatised for one week in the Kearns Facility, Kolling Institute of Medical Research, the University of Sydney, following standard animal regulation and strict health controls allowing transfer between institutions. Animal care and housing was undertaken in accordance with institutional guidelines of Northern Sydney Local Health District (NSLHD) Animal Care & Ethics Committee (ACEC) (Protocol number 1011-015A).
Tumour growth was measured at least twice a week. When tumours were ˜40-100 mm3, the treatments were administered two times weekly by intraperitoneal injection (IP.) for control and gemcitabine alone groups, and intravenously (IV.) injection for nanoparticles groups for 4 weeks. At 30 days each experiment organs and tumours were harvested for analysis.
Tissue samples were fixed in 10% phosphate buffered formalin and embedded in paraffin. Formalin-fixed, paraffin embedded sections were cut 4-μm thick sections and stained with Mayer's hematoxylin and eosin (H & E). For immunohistochemistry, sections were incubated with the specific antibodies then using the Dako Envision+System-HRP labelled polymer detection kit (DaKo) according to manufacturers' protocol and counterstained with Mayer's hematoxylin and Scott's bluing solution. After mounting, sections were observed under a light microscope (ECLIPSE 80i; Nikon,
The evaluation of anticancer drugs in vivo is essential as it provides insight into the expected clinical outcomes of a drug. An in vivo evaluation of the anti-cancer efficacy of the CP-prodrug nanoparticles vs. CP was conducted on a resistant MIAPACA-2 (human pancreatic cancer) cell-derived xenograft in NOD-SCID mice. Five mice per group were used in the study and all treatments were administered via an IV injection twice a week for four weeks. The amount of CP administered in the free CP group was 0.75 mg/kg, where the nanoparticles made from CP-bis (suc-PEG3-Oleoyl) and stabilised with 30% PEG4K-oleoyl (FIG. 7b), contained 0.75 mg/kg of equivalent CP.

[5] = Mesophase behaviour by polarized optical microscopy (POM); format: physicochemical; conditions: 25° C. and 37° C.
Protocol: Polarized Optical Microscopy (POM): Samples used for Polarized Optical Microscopy (POM) were prepared by placing a small amount of prodrug amphiphile on a microscope slide and covered with a cover slip. Water was placed on the edges of the cover slip and allowed to flow into the sample by capillary action. The microscope slide was placed in a Linkam PE94 hot stage (Linkam Scientific Instruments Ltd. Surrey, England) and heated at 3° C./min between room temperature and 50° C. […] Images were captured with a Nikon DS-Ri-1 camera. All images were taken at 100× magnification.
The formation of lyotropic mesophases is based on the interaction of the prodrug amphiphile with water. Polarized optical microscopy was used to study the liquid crystalline or crystalline structures of the prodrug amphiphiles. This method was used as a preliminary and qualitative investigation to observe the morphological changes of the amphiphile as well as to predict the structural changes of the mesophases which may form upon hydration with water. For each prodrug amphiphile, a small amount of the neat and dry sample was placed on a microscope slide and covered with a cover slip. Water was placed on the edges of the cover slip to allow to flow into the sample by capillary action. Images were captured at 25° C. before and after the addition of water and at 37° C. after exposure to water. 37° C. was selected due to its physiological relevance. […]

[6] = Reduction kinetics of Pt (IV) prodrug nanoparticles with ascorbic acid (LC-MS); format: in vitro ADME; conditions: prodrug nanoparticles 0.1 mM, 37° C.
Protocol: The reducing agent was applied at concentrations corresponding to those found in the living cells' environment, e.g. 1 mM ascorbic acid or 2 mM glutathione (GSH).
Dispersed nanoparticles of Pt (IV) prodrug amphiphiles were mixed with GSH, ascorbic acid or their combination. The ratios of the reducing agents to platinum prodrugs were 10:1 or 50:1 for ascorbic acid and 20:1 for GSH. The reduction kinetics was analysed by LC-MS via monitoring the peaks related to each prodrug amphiphile. The prodrugs were detected by negative ions optimised for each platinum amphiphile. The reduction kinetics was plotted as the percentage of the area under the peak of Pt (IV)-prodrug compared to the peak before the addition of the reducing agent against the time of incubation. At each time point 10 μl of a sample withdrawn from the reaction solution was injected directly into a Phenomenex C8 150 mm×2 mm 5 μm Luna column (Phenomenex, Australia). A 100% Methanol solution was used as the mobile phase with a flow rate of 0.5 ml/min for 8 minutes. The sample after the column separation was eluted to the ESI source. […] The samples were well maintained at a temperature of 37° C. during the entire measurement by incubation in the temperature-controlled auto-sampler. Data was acquired and processed with Xcalibur Quan chromatography software.

[7] = tested on: CACO2 cell line; experiment: Cell proliferation and cytotoxicity assay (MTS or crystal violet); format: cell-based; conditions: CACO2, 72 hours; prodrug tested as nanoparticles
Protocol: as §1, §2

[8] = 0.75 mg/kg CP or equivalent, IV twice a week for four weeks

**Q.** With `Nc1ccn([C@@H]2O[C@H](CO)[C@@H](O)C2(F)F)c(=O)n1` [Gemcitabine] as the molecule, how does the “tumour growth inhibition (in words)” value [1] read?
**A.** significantly reduced the tumour volume; also recorded: reduced the size of tumour significantly better than other groups

**Q.** What does the source list for `N.N.[Cl][Pt][Cl]` [Cisplatin, Cis-diamminedichloroplatinum (II)]?
**A.** IC50 [2]: 3.6 µM; IC50 [3]: 11.5 µM; histopathology of the kidney ([4]; listed as CP): sever pathological changes in the form of acute tubular necrosis, haemorrhage into many of the glomeruli and swelling of the capillaries; histopathology of the kidney ([4]; listed as CP drug): acute tubular necrosis; average increase of body weight at the conclusion of the experiment [4, 8]: 14%; tumour growth inhibition (in words) [4, 8]: growth inhibition to control PBS group, but less than group treated with nanoparticle

**Q.** Which IC50 [2] does the source give for “cis,cis,trans-(PtC12 (succinoyl-triethyleneglycoyl-oleoyl)2) [CP-bis(suc-PEG3-oleoyl)]” here?
**A.** 5.1 µM

**Q.** And the “POM observation on exposure to water” value [5]?
**A.** lamellar and emulsified bands (L2 or L3) mesophases

**Q.** And the “reduction rate at 5 mM versus 1 mM ascorbic acid” value [6]?
**A.** slightly greater than 1 mM up to 4 h, however longer incubation time up to 7 h showed similar reduced prodrug at both concentrations

**Q.** What about the IC50 [7] of the same molecule?
**A.** 49 µM

**Q.** What about the IC50 [3] of the same molecule?
**A.** 28.2 µM
